For 27 molecules, Emax results are on record in patent publication US20260256751A1, “COMBINATION OF BETA-2-ADRENERGIC RECEPTOR AGONISTS AND GLP-1 RECEPTOR AGONISTS FOR USE IN TREATING HYPERGLYCAEMIA” (ATROGI AB, priority 2023, published 2026).

Molecules are shown by their SMILES. Some results are limits rather than exact numbers.

Test [1] has as its system differentiated L6-myotubes. Briefly: cAMP production relative to isoprenaline (Biological example 2 of WO 2019/053427). The conditions noted are these: 0.25 h, compound at 10 μM, activity relative to isoproterenol at 10 μM. It counts as cell-based. In a few lines: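 Differentiated L6 myotubes stimulated 15 min with test compound or isoprenaline, each at final 1×10^−5 M, in HBSS with 1% BSA, 5 mM HEPES, 1 mM IBMX, pH 7.4. cAMP production by the compound expressed relative to that induced by the same concentration of isoprenaline.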
(In general: cAMP levels reflect the balance of adenylyl cyclase and phosphodiesterase activity.)

Test [2] has as its system differentiated L6-myotubes. Description: Glucose uptake screen (Biological example 1 of WO 2019/053427). It counts as cell-based. As to conditions: compound at 10 μM, activity relative to isoproterenol at 10 μM, read-out: Biological example 1 of WO 2019/053427 (GU). In a few lines:
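Rat L6 myoblasts were differentiated into myotubes over 7 days in 2% FBS, then serum-starved overnight. Cells were stimulated with 1×10^−5 M compound plus β2 antagonist ICI-118551 for 1 h 40 min and re-dosed for 20 min in glucose-free medium. Uptake of 50 nM ^3H-2-deoxyglucose over 10 min was counted after NaOH lysis.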

As to `CC1(C)C[C@H]([C@H](O)c2ccccc2F)N1` [Compound 204, (R)-[(R)-4,4-dimethyl-2-azetidinyl](o-fluorophenyl)methanol], the figures for the Emax at 10 µM in test [1] and in test [2] were 25 to 50% and over 75%, respectively.

In the case of `CC1(C)C[C@@H]([C@@H](O)c2ccccc2F)N1` [Compound 205, (S)-[(S)-4,4-dimethyl-2-azetidinyl](o-fluorophenyl)methanol], the Emax at 10 µM in test [1] was under 25%; in test [2], 25 to 50%.

For the molecule `CC12CC(C1)[C@H]([C@H](O)c1cccc(Cl)c1)N2` [Compound 206, (R)-{(R)-1-methyl-2-azabicyclo[2.1.1]hex-3-yl}(m-chlorophenyl)methanol], the figures for the Emax at 10 µM in test [1] and in test [2] were under 25% and over 75%, respectively.

Regarding `CC12CC(C1)[C@@H]([C@@H](O)c1cccc(Cl)c1)N2` [Compound 207, (S)-{(S)-1-methyl-2-azabicyclo[2.1.1]hex-3-yl}(m-chlorophenyl)methanol], the Emax at 10 µM is under 25% in test [1] and 25 to 50% in test [2].

Turning to `CC12CC(C1)[C@H]([C@@H](O)c1cccc(Cl)c1)N2` [Compound 208, (S)-{(R)-1-methyl-2-azabicyclo[2.1.1]hex-3-yl}(m-chlorophenyl)methanol], the Emax at 10 µM is under 25% in test [1] and 50 to 75% in test [2].

As to `CC12CC(C1)[C@@H]([C@H](O)c1cccc(Cl)c1)N2` [Compound 209, (R)-{(S)-1-methyl-2-azabicyclo[2.1.1]hex-3-yl}(m-chlorophenyl)methanol], the results for the Emax at 10 µM in test [1] and in test [2] were under 25% and 25 to 50%, respectively.

Take `CC12CC(C1)[C@H]([C@H](O)c1ccccc1F)N2` [Compound 210, (R)-{(R)-1-methyl-2-azabicyclo[2.1.1]hex-3-yl}(o-fluorophenyl)methanol]: the Emax at 10 µM in test [1] and in test [2] was over 75% each time.

On to `CC12CC(C1)[C@@H]([C@@H](O)c1ccccc1F)N2` [Compound 211, (S)-{(S)-1-methyl-2-azabicyclo[2.1.1]hex-3-yl}(o-fluorophenyl)methanol], for which the Emax at 10 µM is under 25% in test [1] and over 75% in test [2].

For `CC12CC(C1)[C@H]([C@@H](O)c1ccccc1F)N2` [Compound 212, (S)-{(R)-1-methyl-2-azabicyclo[2.1.1]hex-3-yl}(o-fluorophenyl)methanol], the results for the Emax at 10 µM in test [1] and in test [2] were under 25% and over 75%, respectively.

In the case of `CC12CC(C1)[C@@H]([C@H](O)c1ccccc1F)N2` [Compound 213, (R)-{(S)-1-methyl-2-azabicyclo[2.1.1]hex-3-yl}(o-fluorophenyl)methanol], the Emax at 10 µM is under 25% in test [1] and over 75% in test [2].

`CC1(C)C[C@H]([C@H](O)c2cncc(F)c2)N1` [Compound 214, (R)-[(R)-4,4-dimethyl-2-azetidinyl](5-fluoro-3-pyridyl)methanol]: the Emax at 10 µM in test [1] was under 25%; in test [2], over 75%.

Turning to `CC1(C)C[C@@H]([C@@H](O)c2cncc(F)c2)N1` [Compound 215, (S)-[(S)-4,4-dimethyl-2-azetidinyl](5-fluoro-3-pyridyl)methanol], the values for the Emax at 10 µM in test [1] and in test [2] were under 25% and 25 to 50%, respectively.

Turning to `CC1(C)C[C@@H]([C@H](O)c2cncc(F)c2)N1` [Compound 216, (R)-[(S)-4,4-dimethyl-2-azetidinyl](5-fluoro-3-pyridyl)methanol], the Emax at 10 µM in test [1] was under 25%; in test [2] it was 25 to 50%.

On to `CC1(C)C[C@H]([C@@H](O)c2cncc(F)c2)N1` [Compound 217, (S)-[(R)-4,4-dimethyl-2-azetidinyl](5-fluoro-3-pyridyl)methano], for which the Emax at 10 µM in test [1] is under 25%; in test [2] it was 25 to 50%.

On to `CCC[C@@H]1CCCC[C@H]([C@@H](O)c2cncc(F)c2)N1` [Compound 218, (S)-[(2R,7R)-7-propyl-2-azepanyl](5-fluoro-3-pyridyl)methanol], for which the Emax at 10 µM in test [1] and in test [2] was under 25% each time.

Consider `CCC[C@@H]1CCCC[C@H]([C@H](O)c2cncc(F)c2)N1` [Compound 219, (R)-[(2R,7R)-7-propyl-2-azepanyl](5-fluoro-3-pyridyl)methanol], for which the Emax at 10 µM in test [1] and in test [2] was under 25% each time.

For the molecule `CC12CC(C1)[C@H]([C@H](O)c1cncc(F)c1)N2` [Compound 220, (R)-{(R)-1-methyl-2-azabicyclo[2.1.1]hex-3-yl}(5-fluoro-3-pyridyl)methanol], the Emax at 10 µM in test [1] was under 25%; in test [2] it was over 75%.

As to `CC12CC(C1)[C@@H]([C@@H](O)c1cncc(F)c1)N2` [Compound 221, (S)-{(S)-1-methyl-2-azabicyclo[2.1.1]hex-3-yl}(5-fluoro-3-pyridyl)methanol], the Emax at 10 µM is under 25% in test [1] and 50 to 75% in test [2].

For `CC12CC(C1)[C@H]([C@@H](O)c1cncc(F)c1)N2` [Compound 222, (S)-{(R)-1-methyl-2-azabicyclo[2.1.1]hex-3-yl}(5-fluoro-3-pyridyl)methanol], the Emax at 10 µM in test [1] and in test [2] was under 25% in each case.

In the case of `CC12CC(C1)[C@@H]([C@H](O)c1cncc(F)c1)N2` [Compound 223, (R)-{(S)-1-methyl-2-azabicyclo[2.1.1]hex-3-yl}(5-fluoro-3-pyridyl)methanol], the Emax at 10 µM in test [1] is under 25%; in test [2] it was 25 to 50%.

As to `CO[C@H]1CC[C@H](CCNC[C@H](O)c2cccc(F)c2)CC1` [Compound 224, (R)-1-(m-fluorophenyl)-2-{2-[(1r,4R)-4-methoxycyclohexyl]ethyl-amino}-1-ethanol], the Emax at 10 µM in test [1] is under 25%; in test [2], 25 to 50%.

In the case of `CO[C@H]1CC[C@H](CCNC[C@H](O)c2cncc(F)c2)CC1` [Compound 225, (R)-1-(5-fluoro-3-pyridyl)-2-{2-[(1r,4R)-4-methoxycyclohexyl]ethyl-amino}-1-ethanol], the Emax at 10 µM in test [1] was under 25%; in test [2] it was 50 to 75%.

On to `CC1(C)CC[C@H]([C@@H](O)c2cccc(N)c2F)N1` [Compound 226, (S)-[(R)-5,5-dimethyl-2-pyrrolidinyl](3-amino-2-fluorophenyl)methanol], for which the Emax at 10 µM in test [1] was under 25%; in test [2], 25 to 50%.

With `CC1(C)CC[C@H]([C@H](O)c2cccc(N)c2F)N1` [Compound 227, (R)-[(R)-5,5-dimethyl-2-pyrrolidinyl](3-amino-2-fluorophenyl)methanol], the Emax at 10 µM in test [1] is under 25%; in test [2], over 75%.

On to `CO[C@H]1CC[C@H](CNC[C@H](O)c2cccc(F)c2)CC1` [Compound 228, (R)-1-(m-fluorophenyl)-2-({[(1r,4R)-4-methoxycyclohexyl]meth-yl}amino)-1-ethanol], for which the Emax at 10 µM is under 25% in test [1] and 50 to 75% in test [2].

`CO[C@H]1CC[C@H](CNC[C@H](O)c2cncc(F)c2)CC1` [Compound 229, (R)-1-(5-fluoro-3-pyridyl)-2-({[(1r,4R)-4-methoxycyclohexyl]meth-yl}amino)-1-ethanol]: the Emax at 10 µM was under 25% in test [1] and 50 to 75% in test [2].

Take `CC1(C)C[C@H]([C@H](O)c2cccc(Cl)c2)N1` [Compound 230, (R)-[(R)-4,4-dimethyl-2-azetidinyl](m-chlorophenyl)methanol]: the Emax at 10 µM in test [1] was under 25%; in test [2], over 75%.
